Experimental data from publication PMC7290497, “Tubulin Resists Degradation by Cereblon-Recruiting PROTACs” (Cells, 2020).
“Also recorded” adds a separate entry of the source. Where two headings read alike, the source gives them in different places. Square brackets hold non-standard residues; d marks the D form. Peptide text beside a SMILES is read from it. * marks the point of attachment. Dolaproine = CO[C@@H]([C@@H]1CCCN1)[C@@H](C)C(=O)O; X1 = O=C1CCC(N2C(=O)c3cccc(*)c3C2=O)C(=O)N1; Dil = CC[C@H](C)[C@H](NC)[C@@H](CC(=O)O)OC; X2 = C[C@@H](N*)[C@@H](O)c1ccccc1; NMeV = CN[C@H](C(=O)O)C(C)C; 12Ado = NCCCCCCCCCCCC(=O)O

How the values were obtained:
CRBN = target: T1, CRBN (Homo sapiens, UniProt Q96SW2); assay: Competitive displacement assay for cellular CRBN engagement (rescue of dBET6-mediated BRD4BD2-eGFP degradation, mCherry reporter cells); type: cell-based
T1 construct: Quantitative assessment of intracellular CRBN engagement; endogenous in cells; host or cells: Flp293T-based BRD4BD2-GFP mCherry reporter cell line
Description: (§1) The human telomerase reverse transcriptase immortalized retinal pigment epithelium 1 (hTert-RPE1) cell line used in this study was grown at 37 °C with 5% CO2 in a humidified incubator. Cells were grown in Dulbecco’s modified medium (nutrient mixture F12, DMEM/F12) supplemented with 10% fetal bovine serum, and 1% (v:v) penicillin/streptomycin (pen/strep). The Flp293T-based BRD4BD2-GFP mCherry reporter cell line was grown in DMEM supplemented with 10% FBS. The synthesized small molecules and the parental microtubule poisons were dissolved in DMSO; 0.01% DMSO was used as vehicle control.
Supplementary Figure S3. MMAE-CRBN compounds engage CRBN in cells. Quantitative assess-ment of intracellular CRBN engagement using a BRD4BRD2-eGFP-mCherry reporter assay. CRBN engagement was assessed by monitoring rescue of dBET6-mediated degradation of BRD4BRD2-eGFP.
Cells stably expressing BRD4BRD2-eGFP and mCherry were treated with 100 nM of dBET6, a specific degrader of BRD4BRD2, and increasing concentrations of the candidate tubulin degraders. The eGFP and mCherry signals were quantified by laser scanning cytometry and the concentration of compound that rescued 50% of BRD4BRD2-eGFP fluorescence (EC50) was determined by nonlinear regression. Data from n=2 biological replicates. Error bars represent standard deviation of the mean. CPD – compound with […]
(also on this page, place not known: BRD4 BRD2-eGFP-mCherry (BJG-02-095)1 100Relative abundance 100Relative abundance 100Relative abundance) […]
Supplementary Figure S6. CA4-CRBN compounds engage CRBN in cells. Quantitative assessment of intracellular CRBN engagement using a BRD4BRD2-eGFP-mCherry reporter assay. CRBN engage-ment was assessed by monitoring rescue of dBET6-mediated degradation of BRD4BRD2-eGFP. Cells stably expressing BRD4BRD2-eGFP and mCherry were treated with 100 nM of dBET6, a specific degrad-er of BRD4BRD2, and increasing concentrations of the candidate tubulin degraders. The eGFP and […]
(also on this page, place not known: BRD4 BRD2-eGFP. (BJG-02-158)10 Relative abundance 100Relativeabundance) […]
3. Competitive displacement assay for cellular CRBN engagement
Cells stably expressing the BRD4BD2-GFP with mCherry reporter were seeded at 30-50% confluency in 384-well plates with 50 µL FluoroBrite DMEM media (Thermo Fisher Scientific A18967) containing 10% FBS per well a day before compound treatment. Compounds and 100 nM dBET6 were dispensed using a D300e Digital Dispenser (HP), normalized to 0.5% DMSO, and incubated with cells for 5 hours. The assay plate was imaged immediately using an Acumen High Content Imager (TTP Labtech) with 488 nm and 561 nm lasers in 2 µm x 1 µm grid per well format. The resulting images were analyzed using CellProfiler.
A series of image analysis steps (‘image analysis pipeline’) was constructed. First, the red and green channels were aligned and cropped to target the middle of each well (to avoid analysis of heavily clumped cells at the edges), and a background illumination function was calculated for both red and green channels of each well individually and subtracted to correct for illumination variations across the 384-well plate from various sources of error. An additional step was then applied to the green channel to suppress the analysis of large auto fluorescent artifacts and enhance the analysis of cell specific fluorescence by way of selecting for objects under a given size, 30 A.U., and with a given shape, speckles. mCherry-positive cells were then identified in the red channel filtering for objects between 8-60 pixels in diameter and using intensity to distinguish between clumped objects. The green channel was then segmented into GFP positive and negative areas and objects were labeled as GFP positive if at least 40% of it overlapped with a GFP positive area. The fraction of GFP-positive cells/mCherry-positive cells in each well was then calculated, and the green and red images were rescaled for visualization. The values for the concentrations that lead to a 50% […]

[1] = tested on: α-tubulin (TUBA) and β-tubulin (TUBB) in hTert-RPE1 cells; assay: Western blot of tubulin protein levels (tubulin degradation) in whole-cell extracts; type: cell-based, human; settings: for degradation of tubulin (TUBA and TUBB protein levels, Western blot): normalized to ACTB and DMSO; for tubulin degradation in time-course experiment: five hours, data not shown
Description: as §1
Whole-cell extracts for immunoblot analysis were prepared by cell lysis in 2× SDS sample buffer composed of 50 mM Tris-HCl pH 6.8, 2% SDS, 10% glycerol, 143 mM β-mercaptoethanol, 12.5 mM EDTA, and 0.02% bromophenol blue in water. Samples were denatured at 100 °C for 10 min and then subjected to SDS-PAGE gel electrophoresis on 1.5 mm NuPAGE Novex 4–12% Bis-Tris Protein Gels (Thermo Fisher Scientific, Waltham, MA, USA), using the Mini Trans-Blot Cell system (BioRad, Hercules, CA, USA).
(§2) The Precision Plus Protein Dual Color Standard ladder was used for all immunoblots (BioRad, USA). Primary antibodies were diluted: 1:5000 beta-actin (Cell Signaling Technologies, Danvers, MA, USA, #4970), 1:15000 GAPDH (Cell Signaling Technologies, #2118), 1:10000 alpha-tubulin (DM1alpha, Millipore, Burlington, MA, USA, #05-829), and 1:5000 beta-tubulin (Cell Signaling Technologies, # 2128). Secondary antibodies were diluted: 1:15000 goat anti-mouse DyLight 680 conjugated (Thermo Fisher Scientific, #35518), 1:15000 goat anti-rabbit DyLight 800 conjugated (Thermo Fisher Scientific, #35571). The Odyssey Infra-Red Imaging System (LI-COR, Lincoln, NE, USA) equipped with the Image Studio software was used to image and analyze immunoblots. Data plotting and statistical analysis were carried out in Microsoft Excel (Redmond, WA, USA) and R (Vienna, Austria).
As positive controls, we prepared two of the literature molecules, T007-1 and a related T138067 (Figure 2A). We modified the originally reported synthesis of T007-1, instead using 2-chloro-5-nitrobenzoyl chloride, as the reported dicyclohexyl carbodiimide (DCC) coupling with 2-chloro-5-nitrobenzoic acid led to inseparable mixtures of mono- and diacylation (See Supplementary Material for full details). We treated human retinal pigment epithelium 1 (hTert-RPE1) cells, a widely used cell model, with T007-1 and T138067 degraders at a range of concentrations from 5 nM to 10 μM. Prolonged compound treatment was expected to cause activation of the spindle assembly checkpoint and an arrest in the mitotic stage of the cell cycle, which could have an effect on tubulin levels independently of tubulin degradation. To exclude this possibility, we used contact-inhibited quiescent cells (hTert-RPE1 cells stop proliferating at high growth density). In addition, to minimize the probability that some cells escape the cell cycle arrest and continue to proliferate, we opted for a short 5 h treatment of cells with the compounds, which was previously reported to be sufficient to degrade tubulin [35]. […] Therefore, as previously reported, this series of compounds led to degradation of tubulin and a global decrease of both soluble and polymerized tubulin levels.

[2] = tested on: microtubule cytoskeleton in hTert-RPE1 cells; assay: Biochemical partitioning of tubulin into soluble (S) and polymerized (P) fractions; type: cell-based, human; settings: 1 μM, 5 h
Description: as §1
For tubulin partitioning into soluble and polymerized fractions, cells were grown in 12-well dishes at 70–80% confluence. Cells were gently washed with PBS pre-warmed to 37 °C. Soluble tubulin was extracted by incubating cells in 300 µL of tubulin extraction buffer containing 60 mM PIPES (pH 6.8), 25 mM HEPES (pH 7.2), 10 mM EGTA (pH 7–8), 2 mM MgCl2, 0.5% TritonX-100, 10 µM Paclitaxel (Sigma Aldrich, St. Louis, MO USA), and a protease inhibitor tablet (Roche, Branchburg, NJ, USA) for 2 min at room temperature. The extraction buffer with soluble protein was collected and mixed with 100 µL 4× SDS sample buffer. The remaining material containing polymerized tubulin was then collected by adding 400 µL 1× SDS sample buffer and scraping the dish. All samples were denatured at 100 °C for 10 min. Equal aliquots of samples were further concentrated two-fold by evaporation at 100 °C for 3–5 min immediately prior to SDS-PAGE gel electrophoresis.
as §2

[3] = IC50, intracellular CRBN engagement (rescue of 50% of BRD4BRD2-eGFP fluorescence), Supplementary Figures S3 and S6, 100 nM dBET6, n=2 biological replicates
[4] = hTert-RPE1 cells, 5 nM to 10 μM, 5 h

Structure (SMILES)	cell permeability as judged by the cellular CRBN engagement assay (CRBN)	IC50 (CRBN; [3]) [nM]	degradation of tubulin (TUBA and TUBB protein levels, Western blot) [1, 4]	microtubule destabilization (soluble S vs polymerized P fraction of tubulin) [2]	other results
CC[C@H](C)[C@@H]([C@@H](CC(=O)N1CCC[C@H]1[C@H](OC)[C@@H](C)C(=O)N[C@H](C)[C@@H](O)c1ccccc1)OC)N(C)C(=O)[C@@H](NC(=O)[C@H](C(C)C)N(C)CCOCCOCCOCCOCCNc1cccc2c1C(=O)N(C1CCC(=O)NC1=O)C2=O)C(C)C (stereo partly shown) [Compound 1]	cell-permeable	342	no degradation	microtubule destabilization	IC50 (CRBN; IC50, cellular CRBN engagement, 100 nM dBET6, 5 hours): 342 nM
CC[C@H](C)[C@@H]([C@@H](CC(=O)N1CCC[C@H]1[C@H](OC)[C@@H](C)C(=O)N[C@H](C)[C@@H](O)c1ccccc1)OC)N(C)C(=O)[C@@H](NC(=O)[C@H](C(C)C)N(C)C(=O)CCCCCCCCCCCNc1cccc2c1C(=O)N(C1CCC(=O)NC1=O)C2=O)C(C)C (stereo partly shown) [Compound 3] ({X1-12Ado}-[NMeV]V[Dil][Dolaproine]-X2)			no degradation	microtubule destabilization	CRBN engagement / CRBN binding in cells (in words) (CRBN; 100 nM dBET6, 5 hours): very weak CRBN engagement; IC50 (CRBN; 100 nM dBET6, 5 hours, read-out: IC50, cellular CRBN engagement): ~10000 nM
CC[C@H](C)[C@@H]([C@@H](CC(=O)N1CCC[C@H]1[C@H](OC)[C@@H](C)C(=O)N[C@H](C)[C@@H](O)c1ccccc1)OC)N(C)C(=O)[C@@H](NC(=O)[C@H](C(C)C)N(C)CCOCCOCCOCCNc1cccc2c1C(=O)N(C1CCC(=O)NC1=O)C2=O)C(C)C (stereo partly shown) [Compound 5]		467			
CC[C@H](C)[C@@H]([C@@H](CC(=O)N1CCC[C@H]1[C@H](OC)[C@@H](C)C(=O)N[C@H](C)[C@@H](O)c1ccccc1)OC)N(C)C(=O)[C@@H](NC(=O)[C@H](C(C)C)N(C)CCOCCOCCOCCOCCOCCNc1cccc2c1C(=O)N(C1CCC(=O)NC1=O)C2=O)C(C)C (stereo partly shown) [Compound 6]		440			
COc1ccc(/C=C\c2cc(OC)c(OC)c(OC)c2)cc1OCCOCCOCCOCCNc1cccc2c1C(=O)N(C1CCC(=O)NC1=O)C2=O (stereo not shown) [Compound 10]	cell permeable	1480			
COc1ccc(/C=C\c2cc(OC)c(OC)c(OC)c2)cc1OCCOCCOCCOCCOCCNc1cccc2c1C(=O)N(C1CCC(=O)NC1=O)C2=O (stereo not shown) [Compound 11]	cell permeable	572			
COc1ccc(/C=C\c2cc(OC)c(OC)c(OC)c2)cc1OCCOCCOCCOCCOCCOCCNc1cccc2c1C(=O)N(C1CCC(=O)NC1=O)C2=O (stereo not shown) [Compound 12]	cell permeable	655			
COc1ccc(/C=C\c2cc(OC)c(OC)c(OC)c2)cc1NCCOCCOCCOCCOCCNc1cccc2c1C(=O)N(C1CCC(=O)NC1=O)C2=O (stereo not shown) [Compound 13]			unsuccessful in degrading tubulin	no microtubule-destabilizing activity	CRBN engagement / CRBN binding in cells (in words) (CRBN; 100 nM dBET6, 5 hours): efficient binding to CRBN; IC50 (CRBN; Supplementary Figures S3 and S6, 100 nM dBET6, n=2 biological replicates, read-out: IC50, intracellular CRBN engagement (rescue of 50% of BRD4BRD2-eGFP fluorescence)): 3720 nM
O=C(Nc1ccnc(NCc2cccc(Oc3ccccc3)c2)c1)c1cc([N+](=O)[O-])ccc1Cl [Compound T007-1]			decrease in tubulin levels	decreased levels of both soluble (S) and polymerized (P) fractions of tubulin; also recorded: both the S and the P fraction of tubulin decrease	tubulin degradation in time-course experiment [1]: efficiently degrade tubulin; potency in decreasing tubulin levels, T007-1 compared with T138067 [1, 4]: significantly more potent
COc1ccc(NS(=O)(=O)c2c(F)c(F)c(F)c(F)c2F)cc1F [Compound T138067]			decrease in tubulin levels	both the S and the P fraction of tubulin decrease	tubulin degradation in time-course experiment [1]: efficiently degrade tubulin
